Laboratory results taken from patent US9943482B2, “Milk-derived microvesicle compositions and related methods” (UNIVERSITY OF LOUISVILLE RESEARCH FOUNDATION, INC., priority 2013, dated 2018).
Like-named read-outs stand apart in the source and are kept apart here.

Tests used:
[1] = Loading of therapeutic agents into bovine milk-derived exosomes; type: physicochemical
Protocol: (§1) Several procedures were developed to load therapeutic agents onto the milk- or colostrum-derived exosomes. […] In one preferred embodiment, incubation of exosomes in PBS with test agents in the presence of 10% ethanol or 10% ethanol:acetonitrile (1:1) allowed for increased loading of therapeutic agents into the exosomes. The agents utilized in those studies included curcumin, withaferin A, demethoxycurcumin, delphinidin, cyanidin, a native mixture of (five) anthocyanidins from bilberry, punicalagin, and tanshinone II. The chemotherapeutic agents doxorubicin, paclitaxel, and docetaxel were also loaded in the exosomes. In this regard, it was observed that the exosomes accepted both hydrophobic (paclitaxel, docetaxel, curcumin, withaferin A, tanshinone II) and hydrophilic agents (berry anthocyanidins, punicalagin) with a loading efficiency of 4% to 65% with respect to exosomal proteins, as determined by measurement of the drug and exosomal protein contents (Tables IV and V). Sucrose density gradient ultracentrifugation confirmed the presence of drugs embedded in the exosomes (FIGS. 5-8). When tested for in vitro release using dialysis tubes against buffer containing the surfactant, Tween-80 [47] at 37° C., PAC and WFA were released time-dependently—20%, 43% and 70% PAC in 2, 6 and 19 h, and 12%, 40% and 58% WFA in 1, 4, and 24 h, respectively (FIGS. 10, 11A, and 11B).

[2] = In vitro release from loaded exosomes, dialysis tubes against buffer with Tween-80 at 37° C.; type: physicochemical
Protocol: as §1

[3] = 3 mg chemo. drug, 30 mg exosomal protein (Sample A)
[4] = 6 mg chemo. drug, 30 mg exosomal protein (Sample B)
[5] = 9 mg chemo. drug, 30 mg exosomal protein (Sample C)
[6] = 12 mg chemo. drug, 30 mg exosomal protein (Sample D)
[7] = 18 mg chemo. drug, 30 mg exosomal protein (Sample E)

| SMILES | % Drug load [1, 3] | % Drug load [1, 4] | % Drug load [1, 5] | % Drug load [1, 6] | % Drug load [1, 7] | stability of agent extracted from residual material of the release study [2] | in vitro release from exosomes ([2]; 2 h) | in vitro release from exosomes ([2]; 6 h) | in vitro release from exosomes ([2]; 19 h) | % Drug load ([1]; 5 mg agent, 50 mg exosomal protein (Sample A)) | % Drug load ([1]; 10 mg agent, 50 mg exosomal protein (Sample B)) | % Drug load ([1]; 20 mg agent, 50 mg exosomal protein (Sample C)) | % Drug load ([1]; 25 mg agent, 50 mg exosomal protein (Sample D)) | in vitro release from exosomes ([2]; 1 h) | in vitro release from exosomes ([2]; 4 h) | in vitro release from exosomes ([2]; 24 h) | stability of agent extracted from residual material of the release study ([2]; HPLC or UV spectral analysis) |
| --- | --- | --- | --- | --- | --- | --- | --- | --- | --- | --- | --- | --- | --- | --- | --- | --- | --- |
| CC(=O)O[C@H]1C(=O)[C@@]2(C)[C@H]([C@H](OC(=O)c3ccccc3)[C@]3(O)C[C@H](OC(=O)[C@H](O)[C@@H](NC(=O)c4ccccc4)c4ccccc4)C(C)=C1C3(C)C)[C@]1(OC(C)=O)CO[C@@H]1C[C@@H]2O [Paclitaxel, paclitaxel] | 15.7% | 20.3% | 14.9% | 36.6% | 64.6% | stable during the workup | 20% | 43% | 70% |  |  |  |  |  |  |  |  |
| CC(=O)O[C@@]12CO[C@@H]1C[C@H](O)[C@@]1(C)C(=O)[C@H](O)C3=C(C)[C@@H](OC(=O)[C@H](O)[C@@H](NC(=O)OC(C)(C)C)c4ccccc4)C[C@@](O)([C@@H](OC(=O)c4ccccc4)[C@H]21)C3(C)C [Docetaxel, docetaxel] | 6.0% | 17.7% | 34.5% | 49.1% | 55.1% | stable during the workup |  |  |  |  |  |  |  |  |  |  |  |
| CC1=C(CO)C(=O)O[C@@H]([C@@H](C)[C@H]2CC[C@H]3[C@@H]4C[C@H]5O[C@]56[C@@H](O)C=CC(=O)[C@]6(C)[C@H]4CC[C@]23C)C1 [Withaferin A, withaferin A] |  |  |  |  |  |  |  |  |  | 3.8% | 8.6% | 31.4% | 44.8% | 12% | 40% | 58% | stable during the workup |
